Data as given in patent US20140357655A1, “SPIROINDOLINE DERIVATIVES AS GONADOTROPIN- RELEASING HORMONE RECEPTOR ANTAGONISTS” (Bayer Intellectual Property GmbH, priority 2012, published 2014).

The molecules below were run against T1, human GnRH receptor (Homo sapiens, UniProt P30968) (assay: IP-One HTRF assay with buserelin (at EC80) stimulation). Conditions: CHO cells stably expressing human GnRH receptor, read-out: Potency in IP-One HTRF assay, given as IC50.
T1 sequence (P30968 1-328): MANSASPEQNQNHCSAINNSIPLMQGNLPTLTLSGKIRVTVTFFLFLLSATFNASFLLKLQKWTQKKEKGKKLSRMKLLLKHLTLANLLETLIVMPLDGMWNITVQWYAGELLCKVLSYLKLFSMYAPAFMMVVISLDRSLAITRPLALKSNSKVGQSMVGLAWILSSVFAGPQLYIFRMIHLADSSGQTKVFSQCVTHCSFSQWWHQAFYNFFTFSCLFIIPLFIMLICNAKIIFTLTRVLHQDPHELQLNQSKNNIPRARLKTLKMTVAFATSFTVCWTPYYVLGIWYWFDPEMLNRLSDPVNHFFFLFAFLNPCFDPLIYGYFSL
Type: cell-based
From the text: 2.3. IP-One HTRF® Assay By using homogenous time-resolved fluorescence resonance energy transfer (HTRF), the generation of one component of the GnRH—R signalling cascade can be measured. After stimulation of CHO cells stably expressing human GnRH receptor (established by Prof. Thomas Gudermann, currently University of Marburg, Germany; supplied as frozen cell aliquots by Cell Culture Services, Hamburg, Germany) with the EC80 of the GnRH agonist buserelin, Gq protein-coupled receptor signalling cascade is activated resulting in PLC-dependent cleavage of PIP2 to Inositol-1,4,5-triphosphate (IP3) and Diacylglycerol. The second messenger IP3 is degraded intracellularly to myo-inositol. Inhibition of the final degradation step from Inositol-1-phosphate (IP1) to myo-inositol by addition of lithium chloride leads to accumulation of IP1 in the cells. In cell lysates, IP1 can be detected via an antibody-based HTRF detection technology, where IP1 can displace the FRET acceptor IP1-d2 from binding by Terbium-labelled anti-IP1 antibody as donor resulting in a signal decrease. Compounds were tested for their capability of inhibiting GnRH—R activation by buserelin. For all IP-One HTRF® assays reagents of Cisbio Bioassays (IP-One Tb Jumbo kit, #62IPAPEJ; Cisbio Bioassays, Bagnols sur Cèze Cedex, France) were used.
For the assay, frozen cell aliquots were thawed and a cell suspension (3.33×10^6 cells/mL) containing IP1-d2 (dilution 1:40) was prepared and incubated at 37° C. After 1 h 3 μl of the cell suspension were added to 50 nl of a 100-fold concentrated solution of the test compound in DMSO pre-dispensed in a well of a white low-volume 384-well microtiter plate (Greiner Bio-One, Frickenhausen, Germany). […] Plates were incubated for 1 h at 37° C. and 5% carbon dioxide before the cells were lysed by adding 3 μl Terbium-labelled anti-IP1 antibody (1:40) diluted in Conjugate & Lysis buffer as supplied with the kit. After an incubation for 1 h at 22° C. to enable complete cell lysis and antibody binding to free IP1 or IP1-d2, plates were measured in an HTRF reader, e.g. a RUBYstar, PHERAstar (both BMG Labtechnologies, Offenburg, Germany) or a Viewlux (PerkinElmer LAS, Rodgau-Jügesheim, Germany).
From the fluorescence emissions at 665 nm (FRET) and at 620 nm (background signal of Terbium-antibody), the ratio (emission at 665 nm divided by emission at 620 nm) was calculated and the data were normalized (reaction without test compound=0% inhibition; all other assay components except agonist=100% inhibition). On the same microtiter plate, compounds were tested at 10 different concentrations in the range of 20 μM to 1 nM (20 μM, 6.7 μM, 2.2 μM, 0.74 μM, 0.25 μM, 82 nM, 27 nM, 9.2 nM, 3.1 nM and 1 nM; dilution series prepared before the assay at the level of the 100-fold conc. stock solutions by serial 1:3 dilutions in 100% DMSO) in duplicate values for each concentration. By using an in-house software, the IC50 values were calculated by a 4 parameter fit.
`O=C(NCc1ncc(F)cc1Cl)c1ccc2c(c1)C1(CCS(=O)(=O)CC1)C(C1CC1)N2S(=O)(=O)c1ccc(F)cc1` (single isomer, unassigned) [Example 17.2, N-[(3-chloro-5-fluoropyridin-2-yl)methyl]-2-cyclopropyl-1-[(4-fluorophenyl)sulfonyl]-1,2,2′,3′,5′,6′-hexahydrospiro[indole-3,4′-thiopyran]-5-carboxamide 1′,1′-dioxide] was tested, and the IC50 was 2480 nM. For `O=C(NCc1ccccc1Cl)c1ccc2c(c1)C1(CCS(=O)(=O)CC1)C(C1CC1)N2S(=O)(=O)c1ccc(F)cc1` (single isomer, unassigned) [Example 18.2, N-(2-chlorobenzyl)-2-cyclopropyl-1-[(4-fluorophenyl)sulfonyl]-1,2,2′,3′,5′,6′-hexahydrospiro[indole-3,4′-thiopyran]-5-carboxamide 1′,1′-dioxide], the IC50 was 5240 nM. `CS(=O)(=O)c1cccc(NC(=O)c2ccc3c(c2)C2(CCS(=O)(=O)CC2)C(C2CC2)N3S(=O)(=O)c2ccc(F)cc2)c1` (single isomer, unassigned) [Example 23.1, 2-cyclopropyl-1-[(4-fluorophenyl)sulfonyl]-N-(3-mesylphenyl)-1,2,2′,3′,5′,6′-hexahydrospiro[indole-3,4′-thiopyran]-5-carboxamide 1′,1′-dioxide] gave an IC50 of 1870 nM. `CS(=O)(=O)c1cccc(NC(=O)c2ccc3c(c2)C2(CCS(=O)(=O)CC2)C(C2CC2)N3S(=O)(=O)c2ccc(F)cc2)c1` (single isomer, unassigned) [Example 23.2, 2-cyclopropyl-1-[(4-fluorophenyl)sulfonyl]-N-(3-mesylphenyl)-1,2,2′,3′,5′,6′-hexahydrospiro[indole-3,4′-thiopyran]-5-carboxamide 1′,1′-dioxide] gave an IC50 of 153 nM. Work on `NS(=O)(=O)c1cccc(NC(=O)c2ccc3c(c2)C2(CCS(=O)(=O)CC2)C(C2CC2)N3S(=O)(=O)c2ccc(F)cc2)c1` (single isomer, unassigned) [Example 30.1, 2-cyclopropyl-1-[(4-fluorophenyl)sulfonyl]-N-(3-sulfamoylphenyl)-1,2,2′,3′,5′,6′-hexahydrospiro[indole-3,4′-thiopyran]-5-carboxamide 1′,1′-dioxide] yielded an IC50 of 441 nM. Molecule `NS(=O)(=O)c1cccc(NC(=O)c2ccc3c(c2)C2(CCS(=O)(=O)CC2)C(C2CC2)N3S(=O)(=O)c2ccc(F)cc2)c1` (single isomer, unassigned) [Example 30.2, 2-cyclopropyl-1-[(4-fluorophenyl)sulfonyl]-N-(3-sulfamoylphenyl)-1,2,2′,3′,5′,6′-hexahydrospiro[indole-3,4′-thiopyran]-5-carboxamide 1′,1′-dioxide] has an IC50 of 190 nM. For `Cc1cccnc1CNC(=O)c1ccc2c(c1)C1(CCS(=O)(=O)CC1)C(C1CC1)N2S(=O)(=O)c1ccc(F)cc1` (single isomer, unassigned) [Example 31.1, 2-cyclopropyl-1-[(4-fluorophenyl)sulfonyl]-N-[(3-methylpyridin-2-yl)methyl]-1,2,2′,3′,5′,6′-hexahydrospiro[indole-3,4′-thiopyran]-5-carboxamide 1′,1′-dioxide], the IC50 was 266 nM. `Cc1cccnc1CNC(=O)c1ccc2c(c1)C1(CCS(=O)(=O)CC1)C(C1CC1)N2S(=O)(=O)c1ccc(F)cc1` (single isomer, unassigned) [Example 31.2, 2-cyclopropyl-1-[(4-fluorophenyl)sulfonyl]-N-[(3-methylpyridin-2-yl)methyl]-1,2,2′,3′,5′,6′-hexahydrospiro[indole-3,4′-thiopyran]-5-carboxamide 1′,1′-dioxide] was tested, and the IC50 was 15100 nM. Molecule `O=C(NCc1ccccc1C(F)(F)F)c1ccc2c(c1)C1(CCS(=O)(=O)CC1)C(C1CC1)N2S(=O)(=O)c1ccc(F)cc1` (single isomer, unassigned) [Example 32.1, 2-cyclopropyl-1-[(4-fluorophenyl)sulfonyl]-N-[2-(trifluoromethyl)benzyl]-1,2,2′,3′,5′,6′-hexahydrospiro[indole-3,4′-thiopyran]-5-carboxamide 1′,1′-dioxide] has an IC50 of 34 nM. Molecule `O=C(NCc1ccccc1C(F)(F)F)c1ccc2c(c1)C1(CCS(=O)(=O)CC1)C(C1CC1)N2S(=O)(=O)c1ccc(F)cc1` (single isomer, unassigned) [Example 32.2, 2-cyclopropyl-1-[(4-fluorophenyl)sulfonyl]-N-[2-(trifluoromethyl)benzyl]-1,2,2′,3′,5′,6′-hexahydrospiro[indole-3,4′-thiopyran]-5-carboxamide 1′,1′-dioxide] has an IC50 of 1260 nM. `O=C(NC1CCOc2ccccc21)c1ccc2c(c1)C1(CCS(=O)(=O)CC1)C(C1CC1)N2S(=O)(=O)c1ccc(F)cc1` (single isomer, unassigned) [Example 33.1, 2-cyclopropyl-N-(3,4-dihydro-2H-chromen-4-yl)-1-[(4-fluorophenyl)sulfonyl]-1,2,2′,3′,5′,6′-hexahydrospiro[indole-3,4′-thiopyran]-5-carboxamide 1′,1′-dioxide] gave an IC50 of 425 nM. For `O=C(NC1CCOc2ccccc21)c1ccc2c(c1)C1(CCS(=O)(=O)CC1)C(C1CC1)N2S(=O)(=O)c1ccc(F)cc1` (single isomer, unassigned) [Example 33.2, 2-cyclopropyl-N-(3,4-dihydro-2H-chromen-4-yl)-1-[(4-fluorophenyl)sulfonyl]-1,2,2′,3′,5′,6′-hexahydrospiro[indole-3,4′-thiopyran]-5-carboxamide 1′,1′-dioxide], the IC50 was > 20000 nM. For `O=C(NC1CCOc2ccccc21)c1ccc2c(c1)C1(CCS(=O)(=O)CC1)C(C1CC1)N2S(=O)(=O)c1ccc(F)cc1` (single isomer, unassigned) [Example 33.3, 2-cyclopropyl-N-(3,4-dihydro-2H-chromen-4-yl)-1-[(4-fluorophenyl)sulfonyl]-1,2,2′,3′,5′,6′-hexahydrospiro[indole-3,4′-thiopyran]-5-carboxamide 1′,1′-dioxide], the IC50 was > 20000 nM. `COC(=O)c1cccc(NC(=O)c2ccc3c(c2)C2(CCS(=O)(=O)CC2)C(C2CC2)N3S(=O)(=O)c2ccc(F)cc2)c1` (single isomer, unassigned) [Example 34.1, methyl 3-[({2-cyclopropyl-1-[(4-fluorophenyl)sulfonyl]-1′,1′-dioxido-1,2,2′,3′,5′,6′-hexahydrospiro[indole-3,4′-thiopyran]-5-yl}carbonyl)amino]benzoate] was tested, and the IC50 was 38 nM. `COC(=O)c1cccc(NC(=O)c2ccc3c(c2)C2(CCS(=O)(=O)CC2)C(C2CC2)N3S(=O)(=O)c2ccc(F)cc2)c1` (single isomer, unassigned) [Example 34.2, methyl 3-[({2-cyclopropyl-1-[(4-fluorophenyl)sulfonyl]-1′,1′-dioxido-1,2,2′,3′,5′,6′-hexahydrospiro[indole-3,4′-thiopyran]-5-yl}carbonyl)amino]benzoate] showed an IC50 of 825 nM. Molecule `O=C(NCC1CC1)c1ccc2c(c1)C1(CCS(=O)(=O)CC1)C(C1CC1)N2S(=O)(=O)c1ccc(F)cc1` (single isomer, unassigned) [Example 35.1, 2-cyclopropyl-N-(cyclopropylmethyl)-1-[(4-fluorophenyl)sulfonyl]-1,2,2′,3′,5′,6′-hexahydrospiro[indole-3,4′-thiopyran]-5-carboxamide 1′,1′-dioxide] has an IC50 of 394 nM. In the case of `O=C(NCC1CC1)c1ccc2c(c1)C1(CCS(=O)(=O)CC1)C(C1CC1)N2S(=O)(=O)c1ccc(F)cc1` (single isomer, unassigned) [Example 35.2, 2-cyclopropyl-N-(cyclopropylmethyl)-1-[(4-fluorophenyl)sulfonyl]-1,2,2′,3′,5′,6′-hexahydrospiro[indole-3,4′-thiopyran]-5-carboxamide 1′,1′-dioxide], the IC50 is reported as > 20000 nM.
